For the test, the system named is Plasmodium berghei. The test is described as follows: Luciferase/luciferin-expressing antifolate-resistant parasites were used to infect a culture of HepG2 cells that were pre-incubated with compounds. Infected hepatocytes emit light due to the luciferase reaction. Assay results are presented as the percent inhibition of light emission compared to control. […]. Format: functional. To be noted: sporozoite; for IC90: read-out: LUCIFERASE INFECTION ASSAY - IC90.

The mark [1] stands for this setting: read-out: LUCIFERASE INFECTION ASSAY - IC50.

As a reminder, the IC50 is the concentration that gives 50% inhibition. By IC90 is commonly meant the concentration at which the effect reaches the 90% level. For `Fc1cccc(-c2cnc3cnc(-c4ccc(CNc5ccccc5)cc4)cn23)c1`, the IC90 is > 8.37 µM. In addition, the IC50 (PBLUC_HILL_SLOPE 9.4, PBLUC_R_SQUARED 0.212, read-out: LUCIFERASE INFECTION ASSAY - IC50) was > 8.37 µM.
With `CC(=O)Nc1ccc(-c2cnc3ccc(-c4ccoc4)nn23)cc1`, the IC90 was found to be 4.31 µM. Besides, the IC50 under setting [1] was 3.52 µM.
With `CC(C)=CC(=O)Nc1scc(-c2ccccc2)c1C(=O)OCC(=O)Nc1ccc([N+](=O)[O-])cc1Cl`, the IC90 was > 10 µM. In addition, the IC50 (HEPG2TOX_HILL_SLOPE 0.0482, HEPG2TOX_R_SQUARED 0.161, PBLUC_HILL_SLOPE 2.32, PBLUC_R_SQUARED 0.465, read-out: LUCIFERASE INFECTION ASSAY - IC50) stood at 5.35 µM.
Consider `O=C(Nc1nc2ccccn2c1C(=O)NC1CCCC1)c1ccc(Cl)cc1`, for which the IC90 was determined as 1.21 µM. For the same compound, where the note is “HEPG2TOX_HILL_SLOPE 0.927, HEPG2TOX_R_SQUARED 0.795, PBLUC_HILL_SLOPE 2.2, PBLUC_R_SQUARED 0.668, read-out: LUCIFERASE INFECTION ASSAY - IC50”, the 50% inhibitory concentration (IC50) is 0.447 µM.
On to `CCOC(=O)c1nn(Cc2cccc(OC)c2)c2c1CN(C(=O)c1cc3ccccc3o1)CC2`, for which the IC90 is > 7.18 µM. Besides, under “PBLUC_HILL_SLOPE 17.5, PBLUC_R_SQUARED 0.669, read-out: LUCIFERASE INFECTION ASSAY - IC50”, the IC50 turned out to be 7.12 µM.
For the compound `COc1ccc2cc(-c3nc4ccc(Cl)cc4c(-c4ccccc4F)c3C)ccc2c1`, the IC90 was > 10 µM. For the same compound, the IC50 under setting [1] came out at 6.1 µM.
As to `COC(=O)c1cnc(Sc2nnc(C(F)(F)F)n2C)c([N+](=O)[O-])c1`, the IC90 is > 9.08 µM. Also, the IC50 (HEPG2TOX_HILL_SLOPE 7.14, HEPG2TOX_R_SQUARED 0.788, read-out: LUCIFERASE INFECTION ASSAY - IC50) was > 9.08 µM.
Turning to `CN(c1ccccc1)S(=O)(=O)c1ccc(C(=O)Nc2nc(-c3cc(Cl)sc3Cl)cs2)cc1`, the IC90 turned out to be 8.48 µM. In addition, the IC50 (FFLUC_HILL_SLOPE 19.7, FFLUC_R_SQUARED 0.521, HEPG2TOX_HILL_SLOPE 3.83, HEPG2TOX_R_SQUARED 0.989, PBLUC_HILL_SLOPE 4.8, PBLUC_R_SQUARED 0.68, read-out: LUCIFERASE INFECTION ASSAY - IC50) is 5.36 µM.
Take `COc1ccccc1CNc1nc(NCc2ccccc2SC)c2sccc2n1`: the IC90 is > 7.81 µM. Moreover, under setting [1], the IC50 was > 7.81 µM.
`C=S(=O)(NC(=O)CSc1ccc(Cl)cc1)c1ccc(C)cc1` (centres undefined): the IC90 was > 9.32 µM. Moreover, the IC50 under setting [1] was > 9.32 µM.
Take `Cc1nnsc1-c1onc(C)c1C(=O)Nc1cc(Cl)cc(Cl)c1`: the IC90 is > 8.94 µM. Further, the IC50 (HEPG2TOX_HILL_SLOPE 2.99, HEPG2TOX_R_SQUARED 0.625, PBLUC_HILL_SLOPE 10.3, PBLUC_R_SQUARED 0.237, read-out: LUCIFERASE INFECTION ASSAY - IC50) was 8.32 µM.
With `Cc1onc(-c2ccc(Cl)cc2)c1-c1ccnc(SCC(=O)c2ccc([N+](=O)[O-])cc2)n1`, the IC90 is > 7.07 µM. In addition, under “FFLUC_HILL_SLOPE 14.7, FFLUC_R_SQUARED 0.642, read-out: LUCIFERASE INFECTION ASSAY - IC50”, the IC50 was > 7.07 µM.
Turning to `CN1CCN(c2ccc(-c3cn4c(-c5cccc(Cl)c5)cnc4cn3)cn2)CC1`, the IC90 is > 8.15 µM. The IC50 (PBLUC_HILL_SLOPE 1.98, PBLUC_R_SQUARED 0.725, read-out: LUCIFERASE INFECTION ASSAY - IC50) is 5.39 µM.
Consider `O=C(CSc1nnc(-c2c[nH]c3ccccc23)n1C1CC1)Nc1ccccc1N1CCCC1`, for which the IC90 was > 10 µM. Moreover, the IC50 (HEPG2TOX_HILL_SLOPE 1.91, HEPG2TOX_R_SQUARED 0.598, PBLUC_HILL_SLOPE 0.845, PBLUC_R_SQUARED 0.661, read-out: LUCIFERASE INFECTION ASSAY - IC50) was determined as 3.63 µM.
For `CC1CCC(C(C)C)C(N(Cc2ccccc2)C(=O)c2cccc3ccccc23)C1` (centres undefined), the IC90 is > 8.26 µM. Also, the IC50 (FFLUC_HILL_SLOPE 35.1, FFLUC_R_SQUARED 0.0345, HEPG2TOX_HILL_SLOPE 5.62, HEPG2TOX_R_SQUARED 0.422, PBLUC_HILL_SLOPE 0.939, PBLUC_R_SQUARED 0.258, read-out: LUCIFERASE INFECTION ASSAY - IC50) was found to be 6.39 µM.
Take `Cc1cc(Cl)ccc1OCC(=O)c1c(-c2ccccc2)[nH]c2ccccc12`: the IC90 is > 10 µM. Further, the IC50 (PBLUC_HILL_SLOPE 2.14, 2.22, PBLUC_R_SQUARED 0.753, 0.563, read-out: LUCIFERASE INFECTION ASSAY - IC50) amounted to 6.03 µM.
Regarding `Cc1ccc(NC(=O)COc2ccc3c(=O)c(-c4ccccc4)c(C)oc3c2)cc1[N+](=O)[O-]`, the IC90 is > 10 µM. Moreover, the IC50 under setting [1] is > 10 µM.
For `CC(C)(C)c1ccc(-c2cnc3cnc(-c4ccncc4)cn23)cc1`, the IC90 was 4.79 µM. In addition, where the note is “HEPG2TOX_HILL_SLOPE 0.197, HEPG2TOX_R_SQUARED 0.782, PBLUC_HILL_SLOPE 7.81, PBLUC_R_SQUARED 0.726, read-out: LUCIFERASE INFECTION ASSAY - IC50”, the IC50 is 3.62 µM.
As for `O=C(NCc1sccc1Cl)Nc1cccc(Cl)c1`, the IC90 is > 11 µM. Also, the IC50 (PBLUC_HILL_SLOPE 5.24, PBLUC_R_SQUARED 0.165, read-out: LUCIFERASE INFECTION ASSAY - IC50) came out at 7.24 µM.
Regarding `Cc1ccc(OCc2n[nH]c(=S)n2C2CCCCC2)c2c1CCC2`, the IC90 is > 9.61 µM. In addition, the IC50 (PBLUC_HILL_SLOPE 1.42, PBLUC_R_SQUARED 0.362, read-out: LUCIFERASE INFECTION ASSAY - IC50) is > 9.61 µM.
On to `CCc1ccc(C2=NNC(=Nc3ccccc3F)SC2)s1`, for which the IC90 is > 10 µM. The IC50 under setting [1] was > 10 µM.
Consider `O=C(c1cccs1)N1[C@@H]2CC[C@@H](C2)[C@H]1c1nc2cccc(OCc3ccc(F)cc3)c2[nH]1`, for which the IC90 is > 10 µM. In addition, the IC50 (FFLUC_HILL_SLOPE 9.4, FFLUC_R_SQUARED 0.0879, PBLUC_HILL_SLOPE 2.58, PBLUC_R_SQUARED 0.515, read-out: LUCIFERASE INFECTION ASSAY - IC50) was 7.57 µM.
As for `CC(Sc1cc(C(N)=O)c2ccccc2n1)C(=O)Nc1cccc(F)c1` (centres undefined), the IC90 was > 10 µM. The IC50 under setting [1] is > 10 µM.
Take `Cc1onc(-c2c(F)cccc2Cl)c1C(=O)NC1CCSC1=O` (centres undefined): the IC90 is > 9.3 µM. The IC50 under setting [1] is > 9.3 µM.
Consider `CC1(C)CCc2cc(-c3ccnc(S)n3)ccc2O1`, for which the IC90 was > 12.1 µM. Further, the IC50 (FFLUC_HILL_SLOPE 9.25, FFLUC_R_SQUARED 0.0162, PBLUC_HILL_SLOPE 0.814, PBLUC_R_SQUARED 0.637, read-out: LUCIFERASE INFECTION ASSAY - IC50) was 1.38 µM.
Turning to `COc1ccccc1CNC(=O)Nc1nc(C(N)Cc2ccc(C(F)(F)F)cc2)cs1` (centres undefined), the IC90 came to 7.12 µM. The IC50 (PBLUC_HILL_SLOPE 20.8, PBLUC_R_SQUARED 0.198, read-out: LUCIFERASE INFECTION ASSAY - IC50) came out at 6.4 µM.
For the compound `Oc1cc(C(F)(F)F)nc2c(C(F)(F)F)cccc12`, the IC90 came to 5.16 µM. Besides, where the note is “FFLUC_HILL_SLOPE 0.264, FFLUC_R_SQUARED 0.18, PBLUC_HILL_SLOPE 9.49, PBLUC_R_SQUARED 0.416, read-out: LUCIFERASE INFECTION ASSAY - IC50”, the IC50 was 4.09 µM.
Take `Cc1[nH]n(-c2cccc(C(F)(F)F)c2)c(=O)c1-c1cccc(Cl)c1`: the IC90 is > 9.36 µM. The IC50 (HEPG2TOX_HILL_SLOPE 5.8, HEPG2TOX_R_SQUARED 0.928, PBLUC_HILL_SLOPE 3.11, PBLUC_R_SQUARED 0.843, read-out: LUCIFERASE INFECTION ASSAY - IC50) is 6.26 µM.
Regarding `Cc1ccc(C(=O)Nc2nc(CC34CC5CC(CC(C5)C3)C4)cs2)s1`, the IC90 was > 10 µM. Besides, the IC50 (PBLUC_HILL_SLOPE 2.85, PBLUC_R_SQUARED 0.204, read-out: LUCIFERASE INFECTION ASSAY - IC50) turned out to be 6.66 µM.
As for `Cc1ccccc1CN1CCN2C(C(=O)NCc3cccc(Cl)c3)=COC2=NC1=O`, the IC90 was > 10 µM. The IC50 under setting [1] is > 10 µM.
In the case of `COC(=O)c1sc(SC)c2c1CC(C)(C)C/C2=N\O`, the IC90 was > 11 µM. Besides, under setting [1], the IC50 was > 11 µM.
Take `CC/N=c1\scc(-c2ccc(Cl)cc2)n1/N=C/c1ccc[nH]1`: the IC90 is 0.416 µM. Also, where the note is “PBLUC_HILL_SLOPE 20.7, PBLUC_R_SQUARED 0.413, read-out: LUCIFERASE INFECTION ASSAY - IC50”, the IC50 stood at 0.374 µM.
Take `CC(C)(C)OC(=O)N1CCN(CN2C(=O)NC3(CCCCC3)C2=O)CC1`: the IC90 was > 10 µM. Under setting [1], the IC50 was > 10 µM.
For the compound `COc1ccc(-c2csc3ncnc(N4CCN(c5ccccc5[N+](=O)[O-])CC4)c23)cc1`, the 90% effect concentration (IC90) is > 10 µM. For the same compound, the IC50 (HEPG2TOX_HILL_SLOPE 5.61, HEPG2TOX_R_SQUARED 0.324, PBLUC_HILL_SLOPE 1.94, 2.89, PBLUC_R_SQUARED 0.358, 0.293, read-out: LUCIFERASE INFECTION ASSAY - IC50) worked out at 6.64 µM.
Consider `O=C(Nc1ccccc1)Nc1ccc(Cl)c(Cl)c1`, for which the IC90 came to 9.61 µM. For the setting “HEPG2TOX_HILL_SLOPE 12, HEPG2TOX_R_SQUARED 0.666, PBLUC_HILL_SLOPE 4.82, PBLUC_R_SQUARED 0.734, read-out: LUCIFERASE INFECTION ASSAY - IC50”, the IC50 was 6.09 µM.
Consider `COc1cc(C(=O)N2CC=C(c3c[nH]c4ccccc34)CC2)ccc1C`, for which the IC90 is > 10 µM. The IC50 under setting [1] was > 10 µM.
As to `CC1(C(=O)N2CCN(c3ccc(C(F)(F)F)cn3)CC2)Cc2ccccc2C(=O)O1` (centres undefined), the IC90 was > 10 µM. Moreover, the IC50 (HEPG2TOX_HILL_SLOPE 9.02, HEPG2TOX_R_SQUARED 0.896, PBLUC_HILL_SLOPE 11.4, 1.60, PBLUC_R_SQUARED 0.0115, 0.213, read-out: LUCIFERASE INFECTION ASSAY - IC50) came to 7.88 µM.

These data come from ChEMBL document CHEMBL4483862, “Open-source discovery of chemical leads for next-generation chemoprotective antimalarials” (2018).
